Laboratory results taken from patent US20250367322A1, “NUCLEOBASE EDITING SYSTEM AND METHOD OF USING SAME FOR MODIFYING NUCLEIC ACID SEQUENCES” (ReNAgade Therapeutics Management, Inc., priority 2022, published 2025).

Experiments:
[1] = tested on: Mus musculus EMX1 locus (mEMX1); assay: In vivo TnpB editing of mouse EMX1 locus in liver, delivered with an LNP (indels detected by NGS); conditions: TnpB delivered with an LNP (Table (III) Compound C59), FIG. 7
human EMX1 locus (hEMX1) = assay: TnpB endonuclease editing of human EMX1 locus in HEK293T cells (indels detected by NGS); type: cell-based; conditions: FIG. 5

Row | Molecule | editing of Mus musculus EMX1 locus (mEMX1) in liver in vivo [1] | editing of human EMX1 locus (hEMX1) (human EMX1 locus (hEMX1))
1 | CCCCCC(CCCCC)CCOC(=O)CCCCCCCC(CCCCCCCC(=O)OC1CC2CCCC1C2)OC(=O)CCCN(C)C (centres unmarked) [Compound C59] | edits Mus musculus EMX1 locus (mEMX1) in liver in vivo | 
2 | TnpB (SEQ ID NO: 1): "TnpB (SEQ ID NO: 1) endonuclease edits human EMX1 locus (hEMX1) in HEK293T cells" (protein, Deinococcus radiodurans) MIRNKAFVVRLYPNAAQTELINRTLGSARFVYNHFLARRIAAYKESGKGLTYGQTSSELTLLKQAEETSWLSEVDKFALQNSLKNLETAYKNFFRTVKQSGKKVGFPRFRKKRTGESYRTQFTNNNIQIGEGRLKLPKLGWVKTKGQQDIQGKILNVTVRRIHEGHYEASVLCEVEIPYLPAAPKFAAGVDVGIKDFAIVTDGVRFKHEQNPKYYRSTLKRLRKAQQTLSRRKKGSARYGKAKTKLARIHKRIVNKRQDFLHKLTTSLVREYEIIGTEHLKPDNMRKNRRLALSISDAGWGEFIRQLEYKAAWYGRLVSKVSPYFPSSQLCHDCGFKNPEVKNLAVRTWTCPNCGETHDRDENAALNIRREALVAAGISDTLNAHGGYVRPASAGNGLRSENHATLVV |  | edits human EMX1 locus
